In BindingDB's records for doi:10.1021/jm010246u (University of Texas At Austin, 2001):

Experiments:
[1] = molecular target: T1, Telomerase reverse transcriptase (Homo sapiens, UniProt O14746); test: Apparent telomerase inhibition by G-quadruplex mechanism
[2] = molecular target: T1, Telomerase reverse transcriptase; test: Apparent telomerase inhibition by primer mechanism

T1 sequence (O14746 whole entry): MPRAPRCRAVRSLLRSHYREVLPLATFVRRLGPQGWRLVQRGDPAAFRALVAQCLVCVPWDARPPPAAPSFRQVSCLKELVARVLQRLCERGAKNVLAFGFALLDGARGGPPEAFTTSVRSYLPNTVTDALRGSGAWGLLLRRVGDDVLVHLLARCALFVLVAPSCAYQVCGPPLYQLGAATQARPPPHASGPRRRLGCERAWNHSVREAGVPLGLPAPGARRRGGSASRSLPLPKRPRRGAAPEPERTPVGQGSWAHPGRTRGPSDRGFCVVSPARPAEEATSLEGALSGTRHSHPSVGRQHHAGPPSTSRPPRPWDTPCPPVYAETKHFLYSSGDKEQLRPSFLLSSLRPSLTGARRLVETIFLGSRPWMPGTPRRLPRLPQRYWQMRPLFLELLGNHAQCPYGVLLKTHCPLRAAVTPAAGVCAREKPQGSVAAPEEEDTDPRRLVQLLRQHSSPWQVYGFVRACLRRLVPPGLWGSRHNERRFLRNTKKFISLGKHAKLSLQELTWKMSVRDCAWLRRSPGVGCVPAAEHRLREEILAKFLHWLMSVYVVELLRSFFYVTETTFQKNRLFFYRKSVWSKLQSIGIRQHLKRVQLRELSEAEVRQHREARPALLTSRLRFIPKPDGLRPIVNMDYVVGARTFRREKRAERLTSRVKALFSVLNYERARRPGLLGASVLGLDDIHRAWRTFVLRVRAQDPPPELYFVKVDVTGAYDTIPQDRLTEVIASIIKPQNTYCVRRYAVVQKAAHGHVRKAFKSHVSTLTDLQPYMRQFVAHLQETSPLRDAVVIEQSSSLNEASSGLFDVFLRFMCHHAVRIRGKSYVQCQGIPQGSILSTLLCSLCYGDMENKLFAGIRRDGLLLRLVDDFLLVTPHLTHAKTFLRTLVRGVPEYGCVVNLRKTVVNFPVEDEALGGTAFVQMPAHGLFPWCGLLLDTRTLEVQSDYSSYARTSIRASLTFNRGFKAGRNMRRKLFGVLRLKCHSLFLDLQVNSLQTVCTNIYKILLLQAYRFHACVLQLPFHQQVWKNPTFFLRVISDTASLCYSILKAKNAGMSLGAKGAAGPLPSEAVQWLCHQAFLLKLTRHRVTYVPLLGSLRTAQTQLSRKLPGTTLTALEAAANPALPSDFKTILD

Structure (SMILES)	IC50 [1]	IC50 [2]
C[n+]1ccc(-c2c3nc(c(-c4cc[n+](C)cc4)c4ccc([nH]4)c(-c4cc[n+](C)cc4)c4nc(c(-c5cc[n+](C)cc5)c5ccc2[nH]5)C=C4)C=C3)cc1	8 µM	
C[n+]1ccc(-c2c3nc(c(-c4cccc([N+](=O)[O-])c4)c4nc(c(-c5cc[n+](C)cc5)c5ccc([nH]5)c(-c5cccc([N+](=O)[O-])c5)c5ccc2[nH]5)C=C4)C=C3)cc1	25 µM	
C[n+]1ccc(-c2c3nc(c(-c4cc[n+](C)cc4)c4ccc([nH]4)c(-c4cccc([N+](=O)[O-])c4)c4ccc([nH]4)c(-c4cc[n+](C)cc4)c4nc2C=C4)C=C3)cc1	12 µM	
CC[n+]1ccc(-c2c3nc(c(-c4cc[n+](CC)cc4)c4ccc([nH]4)c(-c4cc[n+](CC)cc4)c4ccc([nH]4)c(-c4cc[n+](CC)cc4)c4nc2C=C4)C=C3)cc1	25 µM	
C[n+]1cc(-c2ccco2)cc(-c2c3nc(c(-c4cc(-c5ccco5)c[n+](C)c4)c4ccc([nH]4)c(-c4cc(-c5ccco5)c[n+](C)c4)c4ccc([nH]4)c(-c4cc(-c5ccco5)c[n+](C)c4)c4nc2C=C4)C=C3)c1 [5,10,15,20-tetra[5-(2-furfuryl)-N-methyl-3-pyridyl]porphyrin chloride]		8 µM
